Laboratory results taken from patent US7884186B2, “Isotopically labeled trapping agent and method for identifying reactive metabolites” (Janssen Pharmaceutica NV, priority 2006, dated 2011).

test system: human liver microsomal preparations (cytochrome P450 enzyme preparations); assay: Reactive metabolite trapping with compound of formula (I) / (I-IS) in human liver microsomal incubation, neutral loss (129 Da) LC-MS/MS; assay type: in vitro ADME; settings: 10 μM test compound, 1 mg/ml microsomal proteins, 1 mM 1:1 mixture of formula (I) and (I-IS), NADPH generating system, 60 min, 37° C.; neutral loss of 129 Da, doublet mass difference 8 Da
Protocol: All microsomal incubations described herein were performed at 37° C. in a water bath. The test compound was mixed with human liver microsomal preparations (cytochrome P450 enzyme preparations) in 50 mM potassium phosphate buffer (pH 7.4) supplemented with the non-isotopically labeled compound of formula (I) and the isotopically labeled compound of formula (I-S) that were pre-mixed at an equal molar ratio of 1:1. The resulting mixtures were pre-warmed at 37° C. for 5 min. To the reaction mixtures was then added the co-factor—NADPH generating system—(to initiate the reaction) to yield a final volume of 1000 μl.
The resulting reaction mixtures contained 10 μM test compounds, 1 mg/ml microsomal proteins, 1 mM mixture of non-isotopically labeled compound of formula (I) and isotopically labeled compound of formula (I-IS), 1.3 mM NADP^+, 3.3 mM glucose-6-phosphate, 0.4 U/ml glucose-6-phosphate dehydrogenase, 3.3 mM magnesium chloride.
After a 60 min incubation, the reactions were terminated by the addition of 150 μl of trichloroacetic acid (10%). The resulting mixtures were centrifuged at 10,000 g for 15 min at 4° C. to pellet the precipitated protein, and the supernatants were subjected to solid-phase extractions. Alternatively, the reaction mixtures were subjected to liquid-liquid extractions to recover the metabolites from supernatants.
MS analyses were performed on a Micromass (Manchester, UK) Quattro Micro triple quadrupole mass spectrometer. The ESI ion source was operated in the positive ion mode, and experimental parameters were set as follows: capillary voltage 3.2 kV, source temperature 120° C., desolvation temperature 300° C., sample cone voltage 26 V. Mass spectra collected in the neutral loss scanning mode were obtained by scanning over the range m/z 400-800 in 2.0 s.
For complete profiling of reactive metabolites, samples were first subjected to chromatographic separations with an Agilent 1100 HPLC system with an auto-sampler (Agilent Technologies, Palo Alto, Calif.), and eluents were introduced to the Quattro Micro triple quadrupole mass spectrometer operated in the neutral loss scanning mode. An Agilent Zorbax SB C18 column (2.1×50 mm) was used for the chromatographic separation. […] At 7 min, the column was flushed with 95% acetonitrile for 2 min before re-equilibration at initial conditions. LC-MS/MS analyses were carried out on 10-μl aliquots of cleaned samples. Data were processed using the Masslynx version 4.0 software from Micromass. After a positive peak was detected, MS/MS spectra were subsequently obtained to further confirm the structure of the adduct(s). To acquire CID (Collision Induced Dissociation) spectra, the mass spectrometer was operated in the multiple reaction monitoring (MRM) mode.

SMILES	components (reactive metabolite adducts) showing the characteristic isotopic doublet in the neutral loss scan
c1coc(-c2cccs2)c1 [2-(2-Thienyl)-furan]	showed the characteristic isotopic doublet
Cc1ccco1 [2-Methylfuran]	Two isomeric adducts
O=C(O)Cc1ccccc1Nc1c(Cl)cccc1Cl [Diclofenac]	two of the components showed the expected isotope doublet
c1ccoc1 [Furan]	displayed the characteristic isotopic doublet
Cc1coc2c1CCC(C)C2 (stereo not drawn) [Menthofuran]	One component
COc1ccc2[nH]c([S+]([O-])Cc3ncc(C)c(OC)c3C)nc2c1 (stereo not drawn) [Omeprazole]	Only one component
